Assay results reported in PMC11601558, “SLC6A19 inhibition facilitates urinary neutral amino acid excretion and lowers plasma phenylalanine” (JCI Insight, 2024).
Where “and” joins values, the source holds several entries; their conditions need not be identical. Equal values may be shown once.

Test system: Pah^enu2 mice
Assay: Urine amino acid excretion in Pah^enu2 mice after JN-170
Assay type: in vivo, mouse
Design: urine Gln excretion / urine Phe excretion: unit not given here
Conditions: for 12-hour urine Phe excretion (Fig 3c): individual Pah^enu2 mice
Description: Male homozygous BTBR-Pah<enu2>/J (Pah^enu2) aged 10–13 weeks were purchased from Jackson Laboratory (no. 002232). Immediately before dosing, each animal’s bladder was manually emptied and a plasma sample was drawn. Animals were dosed by oral gavage with vehicle (10% DMSO, 20% 2-hydroxypropyl-β-cyclodextrin [Sigma-Aldrich]) followed by a 1-week washout prior to dosing with JN-170 at doses ranging from 50 to 250 mg/kg. Following dosing with vehicle or JN-170, animals were individually placed in metabolic cages to collect urine samples. After collection of each urine sample, cages were rinsed with ultra-pure water to recover residual analytes. Blood samples were collected predose as well as 1, 3, 8, 12, and 24 hours after dosing with vehicle or JN-170 into tubes with EDTA as a […], and plasma was separated by centrifuging samples at 2,200g for 5 minutes at 4°C. Throughout the study, mice had access to food and water ad libitum. Plasma and urine samples were stored at –80°C until processing.Ten-week-old male WT C57Bl/6J animals (Si Bei Fu Laboratory Animal Technology Co. Ltd.) were dosed either with vehicle or 50–250 mg/kg JN-170 by oral gavage and blood and urine samples were collected as described. All animals had unrestricted access to food and water during the study; C57Bl/6J were kept on rodent maintenance diet from Beijing Keao Xieli, Pah^enu2 mice were kept on Teklad diet no. T.2018.
Urine and cage-wash samples were vortexed and centrifuged at 3,700g for 5 minutes to remove any solid precipitate. Neat samples and samples diluted 1:10 in water were further diluted 1:10 in crash solution (75% acetonitrile 25% methanol, 0.1% formic acid, 5 mM heavy labeled amino acids) to precipitate proteins. Samples were centrifuged at 3,700g for 5 minutes before the supernatant was transferred into an injection plate. Urine amino acid analysis was carried out using a quadrupole time of flight (QToF) LC-mass spectrometry (QToF-LC-MS) bioanalytical method. A standard curve of 1 mM down to 0.06 μM was used as the calibration curve to which samples were quantified. The amino acid concentrations were calculated with a 1/×2 linear regression over a concentration range of 60 nM to 1,000 μM of the individual amino acids. An Agilent QToF 6545 was operated in an accurate mass full scan range of 100–1,700 m/z positive ions formed by electrospray ionization with a normal phase HILIC chromatographic method. An Agilent InfinityLab Poroshell 120 HILIC-Z, 2.1 × 150 mm, 2.7 μm was used as the analytical column with 10 mM Ammonium Acetate in 0.1% FA as mobile phase A and 10 mM Ammonium Acetate in 95% ACN, 0.1% FA as mobile phase B. At a flow rate of 0.25 mL/min, the binary gradient increased from an initial 100% phase B to 90% phase B over 3 minutes. After 1.5 minutes, the gradient ramped to 80% mobile phase B. At 5.6 minutes into the gradient, mobile phase B ramped from 60% to 0% and held for 2 minutes before returning to initial conditions at 7.5 minutes. The gradient was stopped at 10 minutes.Total urine amino acid amounts were calculated by multiplying urine amino acid concentrations by the urine volume and adding the amount of amino acid recovered in the cage wash, which was calculated by multiplying the cage wash amino acid concentration by the cage wash volume.

[1] = Fig S3b, Pahenu2 mice, individual animals
[2] = Pah^enu2 mice, 0–3 hours after 200 mg/kg

**Q.** With `N#Cc1ccc(-c2noc([C@]3(C(F)(F)F)CCN(C(=O)NCCC4(N)CC4)C3)n2)cc1` [JN-170] as the compound, how does the “urinary excretion of Phe, Pah^enu2 vs WT mice” value (0–3 hours after 200 mg/kg) read?
**A.** The value was “approximately 60 fold”.

**Q.** What about the “change in 12 hour urine Arg excretion (Fig 3b)” value (50 mg/kg vs vehicle) of the same compound?
**A.** Its value is 0.3802 log FC.

**Q.** And the “change in 12 hour urine Gln excretion (Fig 3b)” value (50 mg/kg vs vehicle)?
**A.** The value was 1.423 log FC.

**Q.** And the “change in 12 hour urine Glu excretion (Fig 3b)” value (50 mg/kg vs vehicle)?
**A.** The value was 0.4771 log FC.

**Q.** What about the “change in 12 hour urine His excretion (Fig 3b)” value (50 mg/kg vs vehicle) of the same compound?
**A.** The value was 1.279 log FC.

**Q.** What about the “change in 12 hour urine Lys excretion (Fig 3b)” value (50 mg/kg vs vehicle) of the same compound?
**A.** Its value is 0.2248 log FC.

**Q.** And the “change in 12 hour urine Met excretion (Fig 3b)” value (50 mg/kg vs vehicle)?
**A.** Its value is 0.6756 log FC.

**Q.** And the “change in 12 hour urine Phe excretion (Fig 3b)” value (50 mg/kg vs vehicle)?
**A.** The value was 1.34 log FC.

**Q.** What about the “change in 12 hour urine Pro excretion (Fig 3b)” value (50 mg/kg vs vehicle) of the same compound?
**A.** The value was -0.2483 log FC.

**Q.** What about the “change in 12 hour urine Ser excretion (Fig 3b)” value (50 mg/kg vs vehicle) of the same compound?
**A.** The value was 0.9904 log FC.

**Q.** And the “change in 12 hour urine Thr excretion (Fig 3b)” value (50 mg/kg vs vehicle)?
**A.** The value was 1.084 log FC.

**Q.** What about the “change in 12 hour urine Trp excretion (Fig 3b)” value (50 mg/kg vs vehicle) of the same compound?
**A.** The value was 1.144 log FC.

**Q.** What about the “change in 12 hour urine Tyr excretion (Fig 3b)” value (50 mg/kg vs vehicle) of the same compound?
**A.** The value was 1.331 log FC.

**Q.** What about the “12-hour urine Phe excretion (Fig 3c)” value (50 mg/kg) of the same compound?
**A.** Its value is 2329 µg and 2669 µg and 1215 µg and 2142 µg and 1931 µg and 2386 µg.

**Q.** And the “change in 12 hour urine Arg excretion (Fig 3b)” value (100 mg/kg vs vehicle)?
**A.** Its value is 0.4771 log FC.

**Q.** And the “change in 12 hour urine Gln excretion (Fig 3b)” value (100 mg/kg vs vehicle)?
**A.** The value was 2.5092 log FC.

**Q.** And the “change in 12 hour urine Glu excretion (Fig 3b)” value (100 mg/kg vs vehicle)?
**A.** The value was 0.7782 log FC.

**Q.** And the “change in 12 hour urine His excretion (Fig 3b)” value (100 mg/kg vs vehicle)?
**A.** Its value is 2.097 log FC.

**Q.** What about the “change in 12 hour urine Lys excretion (Fig 3b)” value (100 mg/kg vs vehicle) of the same compound?
**A.** Its value is 0.583 log FC.

**Q.** And the “change in 12 hour urine Met excretion (Fig 3b)” value (100 mg/kg vs vehicle)?
**A.** Its value is 1.421 log FC.

**Q.** And the “change in 12 hour urine Phe excretion (Fig 3b)” value (100 mg/kg vs vehicle)?
**A.** Its value is 1.508 log FC.

**Q.** What about the “change in 12 hour urine Pro excretion (Fig 3b)” value (100 mg/kg vs vehicle) of the same compound?
**A.** Its value is 0.2706 log FC.

**Q.** What about the “change in 12 hour urine Ser excretion (Fig 3b)” value (100 mg/kg vs vehicle) of the same compound?
**A.** Its value is 1.62 log FC.

**Q.** And the “change in 12 hour urine Thr excretion (Fig 3b)” value (100 mg/kg vs vehicle)?
**A.** The value was 1.727 log FC.

**Q.** What about the “change in 12 hour urine Trp excretion (Fig 3b)” value (100 mg/kg vs vehicle) of the same compound?
**A.** Its value is 1.687 log FC.

**Q.** What about the “change in 12 hour urine Tyr excretion (Fig 3b)” value (100 mg/kg vs vehicle) of the same compound?
**A.** The value was 1.929 log FC.

**Q.** And the “12-hour urine Phe excretion (Fig 3c)” value (100 mg/kg)?
**A.** Its value is 3398 µg and 3162 µg and 4227 µg and 2980 µg and 2439 µg and 2425 µg.

**Q.** And the “12-hour urinary Phe excretion, mean ± SD” value (200 mg/kg)?
**A.** The value was 4,170 ± 1505 μg.

**Q.** What about the “change in 12 hour urine Arg excretion (Fig 3b)” value (200 mg/kg vs vehicle) of the same compound?
**A.** Its value is 0.4472 log FC.

**Q.** And the “change in 12 hour urine Gln excretion (Fig 3b)” value (200 mg/kg vs vehicle)?
**A.** Its value is 2.528 log FC.

**Q.** What about the “change in 12 hour urine Glu excretion (Fig 3b)” value (200 mg/kg vs vehicle) of the same compound?
**A.** Its value is 0.7559 log FC.

**Q.** What about the “change in 12 hour urine His excretion (Fig 3b)” value (200 mg/kg vs vehicle) of the same compound?
**A.** Its value is 2.089 log FC.

**Q.** And the “change in 12 hour urine Lys excretion (Fig 3b)” value (200 mg/kg vs vehicle)?
**A.** The value was 0.6206 log FC.

**Q.** What about the “change in 12 hour urine Met excretion (Fig 3b)” value (200 mg/kg vs vehicle) of the same compound?
**A.** The value was 1.349 log FC.

**Q.** And the “change in 12 hour urine Phe excretion (Fig 3b)” value (200 mg/kg vs vehicle)?
**A.** The value was 1.635 log FC.

**Q.** And the “change in 12 hour urine Pro excretion (Fig 3b)” value (200 mg/kg vs vehicle)?
**A.** Its value is 0.1887 log FC.

**Q.** What about the “change in 12 hour urine Ser excretion (Fig 3b)” value (200 mg/kg vs vehicle) of the same compound?
**A.** The value was 1.594 log FC.

**Q.** What about the “change in 12 hour urine Thr excretion (Fig 3b)” value (200 mg/kg vs vehicle) of the same compound?
**A.** The value was 1.712 log FC.

**Q.** What about the “change in 12 hour urine Trp excretion (Fig 3b)” value (200 mg/kg vs vehicle) of the same compound?
**A.** The value was 1.74 log FC.

**Q.** And the “change in 12 hour urine Tyr excretion (Fig 3b)” value (200 mg/kg vs vehicle)?
**A.** Its value is 1.783 log FC.

**Q.** And the “12-hour urine Phe excretion (Fig 3c)” value (200 mg/kg)?
**A.** Its value is 3871 µg and 5519 µg and 1571 µg and 5260 µg and 3572 µg and 5225 µg.

**Q.** What about the “change in 12 hour urine Arg excretion (Fig 3b)” value (250 mg/kg vs vehicle) of the same compound?
**A.** Its value is 0.6435 log FC.

**Q.** And the “change in 12 hour urine Gln excretion (Fig 3b)” value (250 mg/kg vs vehicle)?
**A.** Its value is 2.17 log FC.

**Q.** And the “change in 12 hour urine Glu excretion (Fig 3b)” value (250 mg/kg vs vehicle)?
**A.** Its value is 0.7482 log FC.

**Q.** And the “change in 12 hour urine His excretion (Fig 3b)” value (250 mg/kg vs vehicle)?
**A.** Its value is 1.862 log FC.

**Q.** And the “change in 12 hour urine Lys excretion (Fig 3b)” value (250 mg/kg vs vehicle)?
**A.** The value was 0.7733 log FC.

**Q.** What about the “change in 12 hour urine Met excretion (Fig 3b)” value (250 mg/kg vs vehicle) of the same compound?
**A.** Its value is 1.454 log FC.

**Q.** What about the “change in 12 hour urine Phe excretion (Fig 3b)” value (250 mg/kg vs vehicle) of the same compound?
**A.** Its value is 1.613 log FC.

**Q.** And the “change in 12 hour urine Pro excretion (Fig 3b)” value (250 mg/kg vs vehicle)?
**A.** The value was 0.0877 log FC.

**Q.** What about the “change in 12 hour urine Ser excretion (Fig 3b)” value (250 mg/kg vs vehicle) of the same compound?
**A.** The value was 1.762 log FC.

**Q.** What about the “change in 12 hour urine Thr excretion (Fig 3b)” value (250 mg/kg vs vehicle) of the same compound?
**A.** The value was 1.809 log FC.

**Q.** What about the “change in 12 hour urine Trp excretion (Fig 3b)” value (250 mg/kg vs vehicle) of the same compound?
**A.** The value was 1.96 log FC.

**Q.** And the “change in 12 hour urine Tyr excretion (Fig 3b)” value (250 mg/kg vs vehicle)?
**A.** The value was 1.972 log FC.

**Q.** And the “12-hour urine Phe excretion (Fig 3c)” value (250 mg/kg)?
**A.** Its value is 2655 µg and 3486 µg and 5073 µg and 6377 µg and 3651 µg and 2501 µg.

**Q.** And the “urine Gln excretion” value [1]?
**A.** The value was 800 and 1688 and 2419 and 1193 and 1615.

**Q.** What about the “urine Phe excretion” value [1] of the same compound?
**A.** The value was 1730 and 2424 and 3033 and 1556 and 1834.

**Q.** And the “glutamine excreted in urine, mean ± SD” value [2]?
**A.** Its value is 1,543 ± 606 μg.

**Q.** And the “urinary excretion of Phe, mean ± SD” value [2]?
**A.** The value was 2,115 ± 608 μg.

**Q.** What about the “increase in urinary Phe excretion” value (≥ 200 mg/kg, 12-hour urine, vs vehicle) of the same compound?
**A.** Its value is over 40 fold.
